Like-named read-outs stand apart in the source and are kept apart here.
Tests used:
[1] = system: p21 induction in HCT 116 cells; test: p21 induction in cells (In-Cell Western, p21/GAPDH ratio); type: cell-based; details: 24 h compound incubation, read-out: p21_EC50
How it was run: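 EC50 values come from nonlinear fits of percent activation, defined by the 800/700 nm p21-to-GAPDH ratio scaled between DMSO (low) and internal WRN inhibitor (high) controls. In-Cell Western read after 24 h compound exposure of HCT 116 cells at 37° C. Duplicate 11-point series, 2-fold steps, usually starting at 10 μM.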

[2] = target: human Werner helicase (WRN, amino acids 517-1235 with L1074F point mutation) (Homo sapiens (Human), UniProt Q14191, L1074F); test: WRN (BV08) ADP-Glo assay; type: biochemical; details: human WRN (aa 517-1235, L1074F), read-out: ADP-Glo_hWRN_IC50
How it was run: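 ADP-Glo luminescence read after 60 min, 25 °C reaction of 0.15 nM WRN (517-1235, L1074F, Sf9-expressed, tag removed) with 0.1 nM DNA duplex and 5 μM ATP, following 15 min compound preincubation; 20 mM Bicine pH 7.5, 1% DMSO. IC50 from 3- or 4-parameter fit of % inhibition.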

Chain of human Werner helicase (WRN, amino acids 517-1235 with L1074F point mutation) (Q14191 other isoform, or with tags, fused parts or gaps L1074F (already in the parent)): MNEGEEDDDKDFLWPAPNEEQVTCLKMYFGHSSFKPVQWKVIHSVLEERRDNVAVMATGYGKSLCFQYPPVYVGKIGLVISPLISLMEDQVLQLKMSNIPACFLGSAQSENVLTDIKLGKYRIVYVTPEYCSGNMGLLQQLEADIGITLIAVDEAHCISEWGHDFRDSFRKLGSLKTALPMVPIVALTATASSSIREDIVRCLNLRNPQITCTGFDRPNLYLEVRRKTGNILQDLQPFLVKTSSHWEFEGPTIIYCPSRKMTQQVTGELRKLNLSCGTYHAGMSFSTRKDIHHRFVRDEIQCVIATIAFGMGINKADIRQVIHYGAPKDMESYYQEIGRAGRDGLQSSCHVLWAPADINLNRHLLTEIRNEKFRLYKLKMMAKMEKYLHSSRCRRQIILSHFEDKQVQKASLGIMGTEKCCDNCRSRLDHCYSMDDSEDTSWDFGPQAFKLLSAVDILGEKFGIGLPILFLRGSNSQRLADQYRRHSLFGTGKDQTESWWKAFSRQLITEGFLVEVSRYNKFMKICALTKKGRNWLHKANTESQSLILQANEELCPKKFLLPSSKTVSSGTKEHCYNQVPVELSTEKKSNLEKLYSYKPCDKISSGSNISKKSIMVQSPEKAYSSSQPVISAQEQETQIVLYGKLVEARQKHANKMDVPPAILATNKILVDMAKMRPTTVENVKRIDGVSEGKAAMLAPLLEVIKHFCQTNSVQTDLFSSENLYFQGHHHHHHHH

SMILES: CCc1c(N2CCN(C(=O)c3ncnc(C)c3O)[C@H]3CC[C@@H]32)c(=O)c2nn(-c3cc(C)n(C)n3)nc2n1CC(=O)NC12CC(C(C)C)(C1)C2 [Compound I-35, 2-[2-(1,5-dimethyl-1H-pyrazol-3-yl)-5-ethyl-6-[(1S,6S)-5-(5-hydroxy-6-methylpyrimidine-4-carbonyl)-2,5-diazabicyclo[4.2.0]octan-2-yl]-7-oxo-2H,4H,7H-[1,2,3]triazolo[4,5-b]pyridin-4-yl]-N-[3-(propan-2-yl)bicyclo[1.1.1]pentan-1-yl]acetamide]
- EC50 ([1]; Homo sapiens): ≤ 500 nM
- IC50 [2]: 5 to 50 nM

SMILES: CCc1c(N2CCN(C(=O)c3ncnc(C)c3O)[C@H]3CC[C@@H]32)c(=O)c2nn(-c3ccnc(OC)c3)nc2n1CC(=O)NC12CC(C3CC3)(C1)C2 [Compound I-30, N-{3-cyclopropylbicyclo[1.1.1]pentan-1-yl}-2-{5-ethyl-6-[(1S,6S)-5-(5-hydroxy-6-methylpyrimidine-4-carbonyl)-2,5-diazabicyclo[4.2.0]octan-2-yl]-2-(2-methoxypyridin-4-yl)-7-oxo-2H,4H,7H-[1,2,3]triazolo[4,5-b]pyridin-4-yl}acetamide]
- EC50 [1]: ≤ 500 nM
- IC50 [2]: 5 to 50 nM

SMILES: CCc1c(N2CCN(C(=O)c3ncnc(C)c3O)[C@H]3CC[C@@H]32)c(=O)c2nn(-c3ccnc(OC)c3)nc2n1CC(=O)NC1CC2(CC(F)C2)C1 (stereo partly drawn) [Compound I-47, 2-{5-ethyl-6-[(1S,6S)-5-(5-hydroxy-6-methylpyrimidine-4-carbonyl)-2,5-diazabicyclo[4.2.0]octan-2-yl]-2-(2-methoxypyridin-4-yl)-7-oxo-2H,4H,7H-[1,2,3]triazolo[4,5-b]pyridin-4-yl}-N-{6-fluorospiro[3.3]heptan-2-yl}acetamide]
- EC50 ([1]; Homo sapiens): 500 to 2000 nM
- IC50 [2]: 5 to 50 nM

SMILES: CCc1c(N2CCN(C(=O)c3c(OC)ncc(C)c3O)CC2)c(=O)c2nn(-c3ccnc(OC)c3)nc2n1CC(=O)NC12CC(C(F)(F)F)(C1)C2 [Compound I-128, 2-{5-ethyl-6-[4-(4-hydroxy-2-methoxy-5-methylpyridine-3-carbonyl)piperazin-1-yl]-2-(2-methoxypyridin-4-yl)-7-oxo-2H,4H,7H-[1,2,3]triazolo[4,5-b]pyridin-4-yl}-N-[3-(trifluoromethyl)bicyclo[1.1.1]pentan-1-yl]acetamide]
- EC50 ([1]; Homo sapiens): ≤ 500 nM
- IC50 [2]: 5 to 50 nM

SMILES: CCc1c(N2CCN(C(=O)c3ncnc(C)c3O)CC2)c(=O)c2nn(-c3ccnc(OC)c3)nc2n1CC(=O)NC12CC(C(F)(F)F)(C1)C2 [Compound I-5, 2-(5-ethyl-6-(4-(5-hydroxy-6-methylpyrimidine-4-carbonyl)piperazin-1-yl)-2-(2-methoxypyridin-4-yl)-7-oxo-2,7-dihydro-4H-[1,2,3]triazolo[4,5-b]pyridin-4-yl)-N-(3-(trifluoromethyl)bicyclo[1.1.1]pentan-1-yl)acetamide]
- EC50 [1]: 500 to 2000 nM
- IC50 [2]: 5 to 50 nM

SMILES: CCc1c(N2CCN(C(=O)c3ncnc(C)c3O)[C@H]3CC[C@@H]32)c(=O)c2nn(-c3ccnc(OC)c3)nc2n1CC(=O)NC12CC(C3CCCC3)(C1)C2 [Compound I-195, N-{3-cyclopentylbicyclo[1.1.1]pentan-1-yl}-2-{5-ethyl-6-[(1S,6S)-5-(5-hydroxy-6-methylpyrimidine-4-carbonyl)-2,5-diazabicyclo[4.2.0]octan-2-yl]-2-(2-methoxypyridin-4-yl)-7-oxo-2H,4H,7H-[1,2,3]triazolo[4,5-b]pyridin-4-yl}acetamide]
- EC50 ([1]; Homo sapiens): ≤ 500 nM
- IC50 [2]: ≤ 5 nM

SMILES: CCc1c(N2CCN(C(=O)c3ncnc(C)c3O)[C@H]3CC[C@@H]32)c(=O)c2nn(C3CC3)nc2n1CC(=O)NC12CC(C3CC3)(C1)C2 [Compound I-32, 2-{2-cyclopropyl-5-ethyl-6-[(1S,6S)-5-(5-hydroxy-6-methylpyrimidine-4-carbonyl)-2,5-diazabicyclo[4.2.0]octan-2-yl]-7-oxo-2H,4H,7H-[1,2,3]triazolo[4,5-b]pyridin-4-yl}-N-{3-cyclopropylbicyclo[1.1.1]pentan-1-yl}acetamide]
- EC50 ([1]; Homo sapiens): 500 to 2000 nM
- IC50 [2]: 5 to 50 nM

SMILES: CCc1c(N2CCN(C(=O)c3c(OC)ncc(C)c3O)CC2)c(=O)c2nn(-c3ccnc(OC)c3)nc2n1CC(=O)NC12CC(N3CCCC3)(C1)C2 [Compound I-124, 2-{5-ethyl-6-[4-(4-hydroxy-2-methoxy-5-methylpyridine-3-carbonyl)piperazin-1-yl]-2-(2-methoxypyridin-4-yl)-7-oxo-2H,4H,7H-[1,2,3]triazolo[4,5-b]pyridin-4-yl}-N-[3-(pyrrolidin-1-yl)bicyclo[1.1.1]pentan-1-yl]acetamide]
- EC50 ([1]; Homo sapiens): > 5000 nM
- IC50 [2]: > 500 nM

SMILES: CCc1c(C23CCN(C(=O)c4ncnc(C)c4O)CC2C3)c(=O)c2nn(-c3ccnc(OC)c3)nc2n1CC(=O)NC12CC(C(C)C)(C1)C2 [Compound I-42, rel-2-{5-ethyl-6-[(1R,6S)-3-(5-hydroxy-6-methylpyrimidine-4-carbonyl)-3-azabicyclo[4.1.0]heptan-6-yl]-2-(2-methoxypyridin-4-yl)-7-oxo-2H,4H,7H-[1,2,3]triazolo[4,5-b]pyridin-4-yl}-N-[3-(propan-2-yl)bicyclo[1.1.1]pentan-1-yl]acetamide]
- EC50 ([1]; Homo sapiens): 500 to 2000 nM
- IC50 [2]: 5 to 50 nM

SMILES: CCc1c(N2CCN(C(=O)c3ncnc(C)c3O)[C@H]3CC[C@@H]32)c(=O)c2nn(C3=CCOCC3)nc2n1CC(=O)Nc1ccc(C(F)(F)F)cc1F [Compound I-12, 2-(2-(3,6-dihydro-2H-pyran-4-yl)-5-ethyl-6-((1S,6S)-5-(5-hydroxy-6-methylpyrimidine-4-carbonyl)-2,5-diazabicyclo[4.2.0]octan-2-yl)-7-oxo-2,7-dihydro-4H-[1,2,3]triazolo[4,5-b]pyridin-4-yl)-N-(2-fluoro-4-(trifluoromethyl)phenyl)acetamide]
- EC50 ([1]; Homo sapiens): ≤ 500 nM
- IC50 [2]: ≤ 5 nM

SMILES: CCc1c(N2CCN(C(=O)c3cncnc3OC)[C@H]3CC[C@@H]32)c(=O)c2nn(C3=CCOCC3)nc2n1CC(=O)NC12CC(C(C)C)(C1)C2 [Compound I-201, 2-[2-(3,6-dihydro-2H-pyran-4-yl)-5-ethyl-6-[(1S,6S)-5-(4-methoxypyrimidine-5-carbonyl)-2,5-diazabicyclo[4.2.0]octan-2-yl]-7-oxo-2H,4H,7H-[1,2,3]triazolo[4,5-b]pyridin-4-yl]-N-[3-(propan-2-yl)bicyclo[1.1.1]pentan-1-yl]acetamide]
- EC50 ([1]; Homo sapiens): ≤ 500 nM
- IC50 [2]: 5 to 50 nM

SMILES: CCc1c(N2CCN(C(=O)c3cccc4oc(=O)[nH]c34)[C@H]3CC[C@@H]32)c(=O)c2nn(C3=CCOCC3)nc2n1CC(=O)NC12CC(C(C)C)(C1)C2 [Compound I-199, 2-[2-(3,6-dihydro-2H-pyran-4-yl)-5-ethyl-7-oxo-6-[(1S,6S)-5-(2-oxo-2,3-dihydro-1,3-benzoxazole-4-carbonyl)-2,5-diazabicyclo[4.2.0]octan-2-yl]-2H,4H,7H-[1,2,3]triazolo[4,5-b]pyridin-4-yl]-N-[3-(propan-2-yl)bicyclo[1.1.1]pentan-1-yl]acetamide]
- EC50 ([1]; Homo sapiens): ≤ 500 nM
- IC50 [2]: 5 to 50 nM

SMILES: CCc1c(C2=CCN(C(=O)c3ncnc(C)c3O)C[C@@H]2C)c(=O)c2nn(-c3ccnc(OC)c3)nc2n1CC(=O)NC12CC(C(C)C)(C1)C2 (single isomer, unassigned) [Compound I-81]
- EC50 ([1]; Homo sapiens): 500 to 2000 nM
- IC50 [2]: 5 to 50 nM
